Where no end group is shown, it is not given here.

Common to all, as to assay: Octapeptide substrate specificity / kinetic characterization with partially purified yeast myristoylating enzyme (Table II)
For series [1], the target named is T1, myristoylating enzyme from yeast (N-myristoylglycylpeptide synthetase) (Saccharomyces cerevisiae, UniProt P14743).
T1 construct: partially purified from a crude homogenate of the cultured yeast cells by fractionation with 51-70% (NH4)2 SO4; endogenous in cells; host or cells: S. cerevisiae strain JR153; ammonium sulfate cut, DEAE-Sepharose CL-6B, CoA-agarose
T1 sequence (P14743 1-455): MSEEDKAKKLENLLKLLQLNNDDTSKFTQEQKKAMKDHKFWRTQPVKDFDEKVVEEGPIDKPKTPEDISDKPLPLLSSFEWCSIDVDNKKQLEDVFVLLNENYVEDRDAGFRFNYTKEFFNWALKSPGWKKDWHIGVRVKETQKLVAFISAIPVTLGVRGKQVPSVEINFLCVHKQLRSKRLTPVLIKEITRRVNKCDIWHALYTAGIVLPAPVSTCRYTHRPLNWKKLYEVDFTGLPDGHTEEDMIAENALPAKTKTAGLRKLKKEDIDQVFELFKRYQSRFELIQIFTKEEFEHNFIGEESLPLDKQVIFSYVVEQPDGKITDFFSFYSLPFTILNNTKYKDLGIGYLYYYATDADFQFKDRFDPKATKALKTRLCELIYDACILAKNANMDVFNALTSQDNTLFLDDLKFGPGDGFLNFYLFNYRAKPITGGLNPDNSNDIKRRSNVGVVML
In kind it is biochemical. Conditions: for Ki: inhibition of myristoylation of the substrate Gly-Asn-Ala-Ala-Ala-Ala-Arg-Arg. The procedure: (§1) The synthetic octapeptide Gly-Asn-Ala-Ala-Ala-Ala-Arg-Arg was initially used to identify a unique enzymatic activity which transfers myristic acid to the amino terminal glycine of this and other peptides. […] The enzyme activity was determined in an in vitro assay which measures the transfer of [^3 H]-myristic acid to the acceptor peptide. The transfer reaction is dependent on adenosine triphosphate (ATP) and coenzyme A (CoA). The enzymatic product was then identified by high performance liquid chromatography (HPLC) by co-elution with a chemically synthesized myristoyl peptide standard. […] Both contained M-myristoyl glycine.
(§2) [^3 H]Fatty acyl CoA was synthesized enzymatically and added to the incubation as follows. The acyl CoA synthetase reaction consisted of (per one assay tube): 0.5 μCi of [^3 H]myristic acid; 25 μl of 2X assay buffer (20 mM Tris, pH 7.4, 2 mM dithiothreitol, 10 mM MgCl2, 0.2 mM EGTA); 5 μl of 50 mM ATP in distilled water, adjusted to pH 7.0 with NaOH; […] in distilled water; 15 μl of lmU/μl of Pseudomonas acyl CoA synthetase (Sigma) in 50 mM N-2-hydroxyethylpiperazine-N'-2-ethane sulfonic acid, pH 7.3; 2.5 μl of distilled water. The reaction was allowed to proceed for 20 minutes at 30° C. Typically, 40% to 50% of the [^3 H]fatty acid was converted to its CoA ester by this procedure as measured by determining the radioactivity remaining in the reaction after acidification with 6 N HCl to pH 2.0 and extraction 6 times with 5 volumes of heptane, a modification of the method of Hosaka et al., Meth. Enzymol. 71, 325-333 (1981). Fifty microliters of this reaction were added to tubes containing 40 μl of assay extraction buffer (see above) and 10 μl of 1 mM GlyAsnAlaAlaAlaAlaArgArg. The assay was initiated by the addition of 10 μl of yeast cell extract (typically 50 μg of protein) per tube, followed by incubation at 30° C. for 10 min. The assay was terminated by the addition of 110 μl of methanol and 10 μl of 100% trichloracetic acid (w/v) per tube, followed by cooling ten minutes on ice. Precipitated protein was removed by centrifugation at 8000 x g for 3 minutes in a tabletop Eppendorf centrifuge. (Under these conditions, 95% of synthetic [^3 H]myristoylpeptide or [^3 H]palmitoylpeptide remined soluble when added to an assay mixture.) Fifty microliters of the supernatant were mixed with 75 μl methanol and 75 μl of HPLC buffer A, and analyzed by reverse phase HPLC on a 3.9 mm by 30 cm Waters μ-Bondapak C18 column using the same HPLC buffers described above, starting at 35% acetonitrile and eluting with a 1% per minute acetonitrile gradient. One minute fractions were collected and the radioactivity in each fraction determined by liquid scintillation counting. [^3 H]Myristoyl-GlyAsnAlaAlaAlaAlaArgArg eluted at 24 minutes, while [^3 H]palmitoyl-GlyAsnAlaAlaAlaAlaArgArg eluted at 30 minutes.
Several octapeptides illustrating the present invention were synthesized by the solid phase Merrifield procedure essentially as described in Example 1 and then tested for activity as substrates or inhibitors for the myristoylating enzyme from yeast (S. cerevisiae strain JR153). The octapeptide substrate specificity of the enzyme was tested under the assay conditions described in Example 2 but using 1 μCi of [^3 H]- myristic acid per assay tube. The yeast enzyme used in this example was partially purified from a crude homogenate of the cultured yeast cells by fractionation with 51-70% (NH4)2 SO4 followed by ion exchange column chromatography with DEAE-Sepharose® CL-6B (Pharmacia) and affinity chromatography with CoA-agarose affinity matrix (Pharmacia).

Substrate in series [2]: CC(C)[C@H](NC(=O)CN)C(=O)N[C@@H](C)C(=O)N[C@@H](C)C(=O)N[C@@H](C)C(=O)N[C@@H](C)C(=O)N[C@@H](CCCNC(=N)N)C(=O)N[C@@H](CCCNC(=N)N)C(N)=O
It counts as biochemical, Saccharomyces cerevisiae. Conditions: other: peptide as acyl acceptor, 1 μCi [3H]-myristic acid per tube, 30.0 °C. As for the experimental part: as §1
as §2, with “The reaction was allowed to proceed for 20 minutes at 30° C.” left out, “Enzymol. 71, 325-333 (1981). Fifty microliters of this reaction were added to tubes containing 40 μl of assay extraction buffer (see above) and 10 μl of 1 mM GlyAsnAlaAlaAlaAlaArgArg. The assay was initiated by the addition of 10 μl of yeast cell extract (typically 50 μg of protein) per tube, followed by incubation at 30° C. for 10 min. The assay was terminated by the addition of 110 μl of methanol and 10 μl of 100% trichloracetic acid (w/v) per tube, followed by cooling ten minutes on ice. Precipitated protein was removed by centrifugation at 8000 x g for 3 minutes in a tabletop Eppendorf centrifuge.” left out, “[^3 H]Myristoyl-GlyAsnAlaAlaAlaAlaArgArg eluted at 24 minutes, while [^3 H]palmitoyl-GlyAsnAlaAlaAlaAlaArgArg eluted at 30 minutes.” left out

Substrate in series [3]: C[C@H](NC(=O)[C@H](C)NC(=O)[C@H](C)NC(=O)[C@H](CC(N)=O)NC(=O)CN)C(=O)N[C@@H](C)C(=O)N[C@@H](CCCNC(=N)N)C(=O)N[C@@H](CCCNC(=N)N)C(N)=O
In kind it is biochemical, Saccharomyces cerevisiae. The settings on record: other: peptide as acyl acceptor, 1 μCi [3H]-myristic acid per tube, 30.0 °C. As for the experimental part: as §1
as §2, with “The reaction was allowed to proceed for 20 minutes at 30° C.” left out, “Enzymol. 71, 325-333 (1981). Fifty microliters of this reaction were added to tubes containing 40 μl of assay extraction buffer (see above) and 10 μl of 1 mM GlyAsnAlaAlaAlaAlaArgArg. The assay was initiated by the addition of 10 μl of yeast cell extract (typically 50 μg of protein) per tube, followed by incubation at 30° C. for 10 min. The assay was terminated by the addition of 110 μl of methanol and 10 μl of 100% trichloracetic acid (w/v) per tube, followed by cooling ten minutes on ice. Precipitated protein was removed by centrifugation at 8000 x g for 3 minutes in a tabletop Eppendorf centrifuge.” left out, “[^3 H]Myristoyl-GlyAsnAlaAlaAlaAlaArgArg eluted at 24 minutes, while [^3 H]palmitoyl-GlyAsnAlaAlaAlaAlaArgArg eluted at 30 minutes.” left out

Substrate in series [4]: CC(C)C[C@H](NC(=O)CN)C(=O)N[C@@H](C)C(=O)N[C@@H](C)C(=O)N[C@@H](C)C(=O)N[C@@H](C)C(=O)N[C@@H](CCCNC(=N)N)C(=O)N[C@@H](CCCNC(=N)N)C(N)=O
It counts as biochemical, Saccharomyces cerevisiae. Conditions: other: peptide as acyl acceptor, 1 μCi [3H]-myristic acid per tube, 30.0 °C. The procedure: as §1
as §2, with “The reaction was allowed to proceed for 20 minutes at 30° C.” left out, “Enzymol. 71, 325-333 (1981). Fifty microliters of this reaction were added to tubes containing 40 μl of assay extraction buffer (see above) and 10 μl of 1 mM GlyAsnAlaAlaAlaAlaArgArg. The assay was initiated by the addition of 10 μl of yeast cell extract (typically 50 μg of protein) per tube, followed by incubation at 30° C. for 10 min. The assay was terminated by the addition of 110 μl of methanol and 10 μl of 100% trichloracetic acid (w/v) per tube, followed by cooling ten minutes on ice. Precipitated protein was removed by centrifugation at 8000 x g for 3 minutes in a tabletop Eppendorf centrifuge.” left out, “[^3 H]Myristoyl-GlyAsnAlaAlaAlaAlaArgArg eluted at 24 minutes, while [^3 H]palmitoyl-GlyAsnAlaAlaAlaAlaArgArg eluted at 30 minutes.” left out

[5] abbreviates: partially purified yeast enzyme.

The Ki is the dissociation constant of the complex between target and ligand, obtained from inhibition or displacement. A high value points to lower affinity. “GFAAAARR-NH2 [Gly--Phe--Ala--Ala--Ala--Ala--Arg--Arg, Gly-Phe-Ala-Ala-Ala-Ala-Arg-Argp]” registered a Ki in series [1] (setting [5]) of 150 µM.

In series [1] (setting [5]), “GLAAAARR-NH2 [Gly--Leu--Ala--Ala--Ala--Ala--Arg--Arg]” gave a Ki of 60 µM. On to “GNAAAARR-NH2 [Gly--Asn--Ala--Ala--Ala--Ala--Arg--Arg, Gly-Asn-Ala-Ala-Ala-Ala-Arg-Arg, reference compound]”, for which the Vmax in series [1] (absolute Vmax, footnote to Table II) is on record as 2840 pmol myristoyl peptide formed. For the same molecule, the “Relative Vmax (%)” value in series [1] (relative to Gly-Asn-Ala-Ala-Ala-Ala-Arg-Arg = 100, partially purified yeast enzyme) came out at 100%. “GVAAAARR-NH2 [Gly--Val--Ala--Ala--Ala--Ala--Arg--Arg]” had a Ki in series [1] (setting [5]) of 60 µM. This counts as double-digit micromolar. “GYAAAARR-NH2 [Gly--Tyr--Ala--Ala--Ala--Ala--Arg--Arg, Gly-Tyr-Ala-Ala-Ala-Ala-Arg-Arg]” registered a Ki in series [1] (setting [5]) of 150 µM.

B1: myristoylating enzyme from yeast (N-myristoylglycylpeptide synthetase) (Saccharomyces cerevisiae S288C) (protein)
chain: MSEEDKAKKLENLLKLLQLNNDDTSKFTQEQKKAMKDHKFWRTQPVKDFDEKVVEEGPIDKPKTPEDISDKPLPLLSSFEWCSIDVDNKKQLEDVFVLLNENYVEDRDAGFRFNYTKEFFNWALKSPGWKKDWHIGVRVKETQKLVAFISAIPVTLGVRGKQVPSVEINFLCVHKQLRSKRLTPVLIKEITRRVNKCDIWHALYTAGIVLPAPVSTCRYTHRPLNWKKLYEVDFTGLPDGHTEEDMIAENALPAKTKTAGLRKLKKEDIDQVFELFKRYQSRFELIQIFTKEEFEHNFIGEESLPLDKQVIFSYVVEQPDGKITDFFSFYSLPFTILNNTKYKDLGIGYLYYYATDADFQFKDRFDPKATKALKTRLCELIYDACILAKNANMDVFNALTSQDNTLFLDDLKFGPGDGFLNFYLFNYRAKPITGGLNPDNSNDIKRRSNVGVVML
notes: partially purified from a crude homogenate of the cultured yeast cells by fractionation with 51-70% (NH4)2 SO4; endogenous in cells; host or cells: S. cerevisiae strain JR153; ammonium sulfate cut, DEAE-Sepharose CL-6B, CoA-agarose
For orientation: Km means the concentration of substrate that gives half-maximal velocity. In the case of B1, the values for the Km in series [2], in series [3] and in series [4] were 700 µM, 60 µM and 300 µM, respectively.

The values are drawn from patent publication US4709012A, “Novel inhibitor peptides” (Washington University, priority 1986, dated 1987).
